“Also recorded” adds a separate entry of the source.
Legend:
[1] = tested on: Philadelphia positive Z119 Acute lymphoblastic leukemia cells; test: In vivo treatment of Philadelphia positive ALL in NOD-SCID mice
Experimental: NOD-SCID mice were irradiated (350 rads) and injected with 5×10^6 Philadelphia positive Z119 Acute lymphoblastic leukemia cells. After 24 hours Alzet micro-osmotic pumps (Alza Corp. Paolo Alto, Calif.) were implanted subcuntaneously, containing either 20 mM solution of CR4 in 50% DMSO/medium or 50% DMSO/medium alone. Alzet 2001 pumps were utilized, holding a total volume of 200 μl and releasing 1 μl per hour over 7-10 days. Pumps were replaced after 7 days. Each mouse received a daily dose of 0.154 mg of CR4.
After 14 (FIG. 20A) and 21 (FIG. 20B) days mice were sacrificed and bone marrow extracted from the fore and hind limbs. Single cell suspensions were prepared, red blood cells lysed and the samples stained with PE-labelled isotype, anti-human CD19 and anti-human HLA-DR antibodies to detect the presence of Z119 cells.
At d14, bone marrow cell cultures were also performed to assess the presence of Z119 cells 5×10^4 BM cells were cultured in IMDM (OCl, Toronto) containing 0.9% (vol/vol) methylcellulose supplemented with 30% serum consisting of a 1:1 mixture of FCS (Cansera Rexdale, ON.) and normal human plasma. No cytokines are added. Under these conditions there is no growth of murine cells. The culture mixture was plated in 1 ml volumes into 35 mm petri dishes and incubated at 37° C., 5% CO2 in a humidified atmosphere. All cultures were evaluated at 9 days for the number of ALL colonies.

[2] = tested on: acute lymphoblastic leukemia, Philadelphia positive ALL, acute myeloid leukemia, myeloma and B-lineage lymphoma; test: Growth of cancer cells in culture, summary over cell types; format: cell-based
[3] = daily dose of 0.154 mg by subcutaneous Alzet pump

N#C/C(=C\C=C\c1ccc(O)c(O)c1)C(=O)NCc1ccccc1 [CR4, (E,E)-2-(benzylaminocarbonyl)-3-(3,4-dihydroxystyryl)acrylonitrile]
non-specific toxicity / damage to the animal ([1]; at the doses required to eliminate cancer cell growth): do not result in detectable non-specific damage; also recorded: No evidence of non-specific toxicity
ALL infiltration of the organs (liver, kidney, spleen) and peripheral blood [1, 3]: below detectable levels; also recorded: below detection level
reduction in the infiltration of ALL cells into the bone marrow [1, 3]: 90%
ALL infiltration of the bone marrow relative to control mice ([1]; day 14 and day 21 sacrifices, daily dose of 0.154 mg by subcutaneous Alzet pump (FIGS. 20A, 20B)): significant reduction
tumor load and infiltration of the organs by the ALL cells ([1]; murine model of human Ph+ ALL): efficiently reduced
reduction in ALL infiltration of bone marrow ([1]; within a two week period, murine model of human Ph+ ALL): greater than 90%
effectiveness against a variety of cancer cells ([2]; concentrations ranging from 50 nM to 5 μM): highly effective
effectiveness against a variety of cell types (Acute Lymphoblastic Leukemia, Philadelphia positive Leukemia, Acute Myeloid Leukemia) ([2]; in culture): highly effective
toxicity to cancer cells ([2]; low nanomolar doses, long term exposure): highly toxic

Reference: patent US6800659B2, “Compounds for modulating cell proliferation” (HSC Research and Development Limited Partnership, priority 2000, dated 2004)
